Source: patent US20190364889A1, “Application of Enhancer in Shortening the Half Life of and/or Time for Complete Degradation of Pesticide Residue” (priority 2016, published 2019)

Conditions: in vivo

## CCOCN(C(=O)CCl)c1c(C)cccc1CC [acetochlor]
  complete degradation time: ~21 days
